Experimental data as given in patent publication US7279321B2, “Methods for increasing the resistance of a host cell to aromatic carboxylic acids” (priority 2003, dated 2007).
Values after ≈ are worked out from the molar mass of the structure shown.

Legend:
Assay type in all cases: cell-based
E. coli MG1655 (yhcP+) = assay: microbe, parasite or virus in culture; details: for MIC, MG1655 (yhcP+): 16 to 18 hours at 37° C., 0.01% tetrazolium violet; for Rank Diff: score of pigment color for MG1655 at the MIC for DPD2444 (0 = no color, 4 = full purple color); for MIC: Escherichia coli, MG1655, read-out: MIC, MG1655 (yhcP+)
Description: (§1) Additional compounds were tested for growth inhibition of E. coli MG1655 (yhcP^+) and DPD2444 (yhcP^−) in Vogel-Bonner medium with glucose as the carbon source and with 0.01% tetrazolium violet added as an indicator of viability. A series of two-fold dilutions of each chemical was made to the wells of a clear 96-well microplate in 50 μl volume. To these wells was added 50 μl of an overnight culture in Vogel Bonner medium with glucose as a carbon source of either MG1655 or DPD2444 that had been previously diluted 500-fold into fresh medium. The plates were incubated at 37° C. without shaking for 16 to 18 hours. The purple color in each well was visually scored. A score of 4+ indicated full purple color equivalent to a no chemical control well. Scores of 3+, 2+, or 1+ indicated decreasing amounts of purple color. A score of − indicated the complete absence of color. The MIC was defined as the lowest tested concentration that gave complete absence of color. The rank of difference between strains was defined as the score of pigment color for E. coli MG1655 in wells containing the concentration of a given chemical at the MIC for DPD24444. When MG1655 had no color, the score was 0. When MG 1655 was scored at 1+, the score was 1, when scored at 2+, the score was 2, etc.

E. coli DPD2444 (yhcP−) = assay: microbe, parasite or virus in culture; details: for MIC, DPD2444 (yhcP−): 16 to 18 hours at 37° C., 0.01% tetrazolium violet; for Fold Diff: MIC MG1655 versus MIC DPD2444; for MIC: Escherichia coli, read-out: MIC, DPD2444 (yhcP−); for defined as substrate of the YhcP efflux pump by this genetic test: MIC difference at least 2-fold and rank at least 2
Description: as §1

[1] = system: yhcP gene (co-transcribed with yhcQ and yhcR); assay: expression of yhcP upon treatment of E. coli cells with aromatic carboxylic acids
[2] = system: E. coli strain DPD2444 (yhcP−, strain 16) compared with MG1655 (yhcP+, strain 14); assay: Phenotype MicroArray chemical sensitivity test (Biolog)
Description: To further define substrates of this efflux system, other molecules were tested with this genetic test. […] E. coli strains DPD2444 (yhcP^−) and MG1655 (yhcP^+) were tested for inhibition by a large number of chemicals at Biolog Inc. (Hayward, Calif.) using the Phenotype MicroArray™ 1-20. The basis of this technology has been described in a recent publication (Bochner et al., Genome Res., 11:1246-1255 (2001)). The chemical sensitivity test was done with 240 compounds at 4 concentrations each. These chemicals included aromatic and heterocyclic molecules, such as acriflavin, dichloro-8-hydroxyquinoline, 9-aminoacridine, fusaric acid, salicylic acid, phenylethanol, o-cresol, m-cresol, p-cresol, pentachlorophenol, coumarin, DL 3-phenyl lactic acid, and cinnamic acid. Also included were numerous antibiotics and other antimicrobial compounds, including several weak acids and other compounds that would disrupt proton flux. Cinnamic acid was the only compound of the 240 tested for which strain DPD2444 was hypersensitive as compared with MG1655. The report regarding the increased sensitivities of strain DPD2444 (strain 16) compared with MG1655 (strain 14) is quoted below in Table 6.

[3] = system: E. coli strain DPD4055 (MG1655 with pTrcHis2TOPO®/lacZ); assay: growth and CFU/ml in defined medium containing pHCA
Description: (§2) The plasmid pDEW668 (described in Example 2) that carries the E. coli yhcRQP pHCA efflux system was moved by transformation into E. coli strain MG1655 obtained from the American Type Culture Collection, Manassas, Va. (ATCC #700926. lot # 2660700) to form strain DPD4057. For a control, plasmid pTrcHis2TOPO®/lacZ was also put into the same host strain, making strain DPD4055. E. coli strains DPD4055 and DPD4057 were grown overnight at 37° C. in a defined medium made with 4 g/l (NH4)2SO4, 1.26 g/l KH2PO4, 2.42 g/l K2HPO4, 0.5 g/l MgSO4.7H2O, 30 mM MOPSO, pH 7.0, 1 mg/l thiamin, 50 mg/l citric acid, 7.5 mg/l CaCl2.2H2O, 25 mg/l FeSO4.7H2O, 1.95 mg/l ZnSO4.7H2O, 1.9 mg/l CuSO4.5H2O, 1.0 mg/l CoCl2.6H2O, 1.5 mg/l MnCl2.4H2O, 7.5 g/l glucose, and 25 μg/ml ampicillin. The next day, tubes with 1.0 ml of the same medium containing 7.5, 5.0, 3.3, 2.2, 1.5, or 0 g/l pHCA were inoculated with 10 μl of the overnight cultures. These tubes were grown at 37° C. on a roller drum in the dark for 1 to 2 days. At 21 hours after inoculation, the tube with 5.0 g/l pHCA inoculated with DPD4057 had visible growth. In contrast, strain DPD4055 had visible growth at 2.2 g/l pHCA, but not higher.
(§3) At 48 hours of incubation, the CFU/ml of the cultures growing in the presence of 7.5 g/l pHCA was determined by plating dilutions onto LB plates. Strain DPD4055 had 2×10^2 CFU/ml. Strain DPD4057 had 8×10^7 CFU/ml. The inoculum for each culture was 2×10^7 CFU/ml. […] In contrast, the culture carrying multicopy yhcRQP increased in CFU/ml.

[4] = system: E. coli strain DPD4057 (MG1655 with pDEW668, multicopy yhcRQP); assay: as above
Description: as §2, §3

E. coli strain MG1655 = assay: MIC, 2-fold dilutions, Vogel-Bonner medium with 0.4% glucose; details: Escherichia coli, overnight at 37° C., read-out: MIC for pHCA
Source text: (§4) The yhcP::TN<Kan> was introduced into E. coli strain MG1655 (obtained from Prof. Douglas Berg, Washington University School of Medicine, St. Louis, […].) by P1clr100 Cm mediated transduction to kanamycin resistance using phage lysates of E. coli strain DPD2443. One of the resultant kanamycin resistant transductants was named DPD2444.

[5] = system: E. coli strain DPD2444 (yhcP::TN<Kan>); assay: as above; details: Escherichia coli, read-out: MIC for pHCA
Source text: as §4

[6] = system: E. coli strain DPD3313 (MG1655 with pTrcHis2TOPO®/lacZ); assay: pHCA MIC, 2-fold dilutions, Vogel-Bonner medium with 0.4% glucose; details: Escherichia coli, no IPTG, overnight at 37° C.
Description: (§5) The pHCA MICs for E. coli strains DPD3313 and DPD3314 were determined. […] IPTG was not added to the medium because the trc promoter has substantial activity in its absence.

[7] = system: E. coli strain DPD3314 (MG1655 with pDEW668, multicopy yhcRQP); assay: as above
Description: as §5

Row | SMILES | MIC, MG1655 (yhcP+) (E. coli MG1655 (yhcP+)) | Rank Diff (E. coli MG1655 (yhcP+)) | MIC, DPD2444 (yhcP−) (E. coli DPD2444 (yhcP−)) | Fold Diff (E. coli DPD2444 (yhcP−)) | MIC (E. coli MG1655 (yhcP+)) | MIC (E. coli DPD2444 (yhcP−)) | also measured
1 | O=C(O)c1ccc(C(=O)O)c2ccccc12 [1,4-naphthalenedicarboxyylic acid] | 10 mM (≈ 2160 µg/mL) | 0 | 10 mM (≈ 2160 µg/mL) | 1 |  |  | 
2 | Oc1cccc2c(O)cccc12 [1,5-dihydroxynaphthalene] |  | 1 |  | 2 | 0.5 mM (≈ 80.1 µg/mL) | 250 µM (≈ 40 µg/mL) | 
3 | Oc1ccc2c(O)cccc2c1 [1,6-dihydroxynaphthalene] |  | 1 |  | 2 | 0.5 mM (≈ 80.1 µg/mL) | 250 µM (≈ 40 µg/mL) | 
4 | O=C(O)c1ccc2ccccc2c1O [1-hydroxy-2-naphthoic acid] |  | 0 |  | 1 | 0.62 mM (≈ 117 µg/mL) | 620 µM (≈ 117 µg/mL) | 
5 | O=C(O)c1cccc2ccccc12 [1-naphthoic acid] |  | 0 |  | 1 | 2.5 mM (≈ 430 µg/mL) | 2500 µM (≈ 430 µg/mL) | 
6 | O=C(O)c1cccc(O)c1O [2,3-dihydroxybenzoic acid] |  | 0 |  | 1 | 10 mM (≈ 1540 µg/mL) | 10000 µM (≈ 1540 µg/mL) | 
7 | O=C(O)c1cc2ccccc2cc1C(=O)O [2,3-naphthalenedicarboxylic acid] |  | 0 |  | 1 | 80 mM (≈ 17300 µg/mL) | 80000 µM (≈ 17300 µg/mL) | 
8 | COc1cccc(OC)c1O [2,6-dimethoxyphenol] |  | 0 |  | 1 | 5 mM (≈ 771 µg/mL) | 5000 µM (≈ 771 µg/mL) | 
9 | Oc1ccc2ccc(O)cc2c1 [2,7-dihydroxynaphthalene] |  | 1 |  | 2 | 0.62 mM (≈ 99.3 µg/mL) | 310 µM (≈ 49.7 µg/mL) | 
10 | O=C(O)c1ccccc1-c1ccccc1 [2-biphenylcarboxylic acid] |  | 0 |  | 1 | 2.5 mM (≈ 496 µg/mL) | 2500 µM (≈ 496 µg/mL) | 
11 | O=C(O)C=Cc1ccccc1O [2-hydroxycinnamate] | 20 mM (≈ 3280 µg/mL) | 2 | 10 mM (≈ 1640 µg/mL) | 2 |  |  | defined as substrate of the YhcP efflux pump by this genetic test (E. coli DPD2444 (yhcP−)): substrates of the YhcP efflux pump
12 | O=C(O)c1ccc2ccccc2c1 [2-naphthoic acid] |  | 1 |  | 2 | 20 mM (≈ 3440 µg/mL) | 10000 µM (≈ 1720 µg/mL) | 
13 | O=C(O)C=Cc1ccc(O)c(O)c1 [3,4-dihydroxycinnamate] | 0.62 mM (≈ 112 µg/mL) | 0 | 0.62 mM (≈ 112 µg/mL) | 1 |  |  | 
14 | COc1cc(C=CC(=O)O)cc(OC)c1O [3,5-dimethoxy-4-hydroxycinnamate] | 10 mM (≈ 2240 µg/mL) | 0 | 10 mM (≈ 2240 µg/mL) | 1 |  |  | 
15 | O=C(O)c1cc2ccccc2cc1O [3-hydroxy-2-naphthoic acid] |  | 0 |  | 1 | 1.2 mM (≈ 226 µg/mL) | 1200 µM (≈ 226 µg/mL) | 
16 | O=C(O)c1ccc2cc(O)ccc2c1 [6-hydroxy-2-naphthoic acid] |  | 3 |  | 8 | 20 mM (≈ 3760 µg/mL) | 2500 µM (≈ 470 µg/mL) | defined as substrate of the YhcP efflux pump by this genetic test (E. coli DPD2444 (yhcP−)): substrates of the YhcP efflux pump
17 | O=C(O)c1ccccc1 [Benzoate] | 25 mM (≈ 3050 µg/mL) | 0 | 25 mM (≈ 3050 µg/mL) | 1 |  |  | 
18 | O=C(O)C=Cc1ccccc1 [CA, cinnamic acid] |  | 1 |  | 2 | 20 mM (≈ 2960 µg/mL) | 10000 µM (≈ 1480 µg/mL) | expression of the yhcP gene upon treatment of E. coli cells [1]: highly upregulated; sensitivity of strain DPD2444 as compared with MG1655 (in words) ([2]; 240 compounds at 4 concentrations each): hypersensitive; Phenotypes Lost - Slower Growth/Sensitivity: Difference ([2]; PM19, well C 11, Strain 16 (DPD2444) vs Strain 14 (MG1655)): −83; difference in growth inhibition of the two strains (in words) (E. coli DPD2444 (yhcP−); MG1655 versus DPD2444): slight difference
19 | COC(=O)c1ccc(O)cc1 [Methyl paraben] |  | 0 |  | 1 | 3.8 mM (≈ 578 µg/mL) | 3800 µM (≈ 578 µg/mL) | 
20 | O=C(O)c1ccccc1O [Salicylate] | 100 mM (≈ 13800 µg/mL) | 0 | 100 mM (≈ 13800 µg/mL) | 1 |  |  | 
21 | C=C1CCOC1=O [Tulipalin] | 0.008% | 0 | 0.008% | 1 |  |  | 
22 | C[S+](C)[O-] [dimethyl sulfoxide (DMSO), dimethyl sulfoxide] | 20% | 0 | 20% | 1 |  |  | 
23 | O=C(O)C=Cc1ccc(O)cc1 [pHCA, para-hydroxycinnamic acid] |  | 2 |  | 4 | 40 mM (≈ 6570 µg/mL) | 10000 µM (≈ 1640 µg/mL) | effect of pHCA on the strain without the multicopy yhcRQP genes (in words) ([3]; 7.5 g/l pHCA, 48 hours): bactericidal effect; CFU/ml of culture in the presence of pHCA ([3]; 7.5 g/l pHCA, 48 hours, DPD4055, inoculum 2×10^7 CFU/ml): 2×10^2 CFU/ml; pHCA concentration with visible growth, but not higher ([3]; 21 hours after inoculation, defined medium, 37° C., DPD4055, tested 7.5, 5.0, 3.3, 2.2, 1.5 g/l): 2.2 g/l; CFU/ml of culture in the presence of pHCA ([4]; 7.5 g/l pHCA, 48 hours, DPD4057, inoculum 2×10^7 CFU/ml): 8×10^7 CFU/ml; pHCA concentration with visible growth ([4]; 21 hours after inoculation, defined medium, 37° C., DPD4057, tested 7.5, 5.0, 3.3, 2.2, 1.5 g/l): 5.0 g/l; fold improvement in pHCA tolerance by multicopy expression of yhcRQP ([4]; DPD4057 versus DPD4055, 21 hours): 2.3 fold; MIC (E. coli strain MG1655): 50 mM (≈ 8210 µg/mL); MIC [5]: 12 mM (≈ 1970 µg/mL); expression of the yhcP gene upon treatment of E. coli cells [1]: highly upregulated; defined as substrate of the YhcP efflux pump by this genetic test (E. coli DPD2444 (yhcP−)): substrates of the YhcP efflux pump; MIC [6]: 50 mM (≈ 8210 µg/mL); increased resistance to pHCA by multicopy expression of the yhcRQP operon ([7]; DPD3314 versus DPD3313): two-fold; MIC ([7]; Escherichia coli, MG1655, read-out: MIC for pHCA): 100 mM (≈ 16400 µg/mL)
